Here are results for two compounds from US8440610B2, “Mapkap kinase-2 as a specific target for blocking proliferation of P53-defective cells” (Massachusetts Institute of Technology, priority 2004, dated 2013).

Test [1] concerns U2OS cells. In words: Clonogenic survival assay in U2OS cells. The format is cell-based, human. The settings on record: 10 μM cisplatin or 1 μM doxorubicin for eight hours, colonies after eight days. Here is the method:
The experiments in FIGS. 15A-15C and 16A-16D indicate that MAPKAP kinase-2 is critical for cisplatin- and doxorubicin-triggered G1/S and G2/M arrest. These checkpoint defects in MAPKAP kinase-2 depleted cells might render them more sensitive to the antiproliferative and cytotoxic effects of chemotherapy. To investigate this, control or MAPKAP kinase-2 knockdown U2OS cells were mock treated or incubated with increasing doses of cisplatin or doxorubicin for eight hours, washed, trypsinized and replated, and assayed for colony formation eight days later (FIGS. 16A-16B). […] For example, luciferase shRNA cells treated with either 10 μM cisplatin or 1 μM doxorubicin formed ˜40% of the number of colonies as those formed by untreated cells, while in MAPKAP kinase-2-depleted cells, these same cisplatin and doxorubicin treatments reduced the number of colonies to only 4% and 2%, respectively, of those seen in the untreated cells.
Clonogenic survival assay. Cells were either mock-treated or treated with increasing doses of doxorubicin or cisplatin. After eight hours of treatment, cells were washed three times with growth media and three times with PBS, trypsinized and replated at a concentration of 5000 cells/10 cm^2 dish. After eight days, cells were fixed and stained with 0.1% crystal violet (Sigma-Aldrich). Colonies consisting of >50 cells were counted, and surviving fractions were determined by normalization against untreated cells. Experiments were performed in triplicate and are plotted as mean values with standard deviations indicated by the error bars.

Test [2] has as its system H-Ras-V12 transformed p53−/− MEFs. In words: Tumor formation after implantation of chemotherapy-treated cells in nude mice. The settings on record: fifteen days; for tumor formation: MAPKAP kinase-2 siRNA-transfected cells pre-treated with 1 μM cisplatin or 0.1 μM doxorubicin before implantation; for size and weight of tumors relative to tumors formed by untreated cells: control siRNA-transfected cells pre-treated with 1 μM cisplatin or 0.1 μM doxorubicin before implantation. The format is in vivo. The protocol:
To establish whether the absence of MAPKAP kinase-2 could also enhance the anti-tumorigenic effect of cisplatin or doxorubicin in vivo, we introduced control or MAPKAP kinase-2 siRNAs into H-Ras-V12 transformed p53^−/− MEFs, treated them with either vehicle alone, 1 μM cisplatin or 0.1 μM doxorubicin, and then implanted them into nude mice. Each animal received two injections of MAPKAP kinase-2 siRNA-transfected cells (left flank), and two injections of control siRNA transfected cells (right flank), and tumor formation was assessed at fifteen days. […] In general, the size of the tumors resulting from injection of MAPKAP kinase-2 depleted cells was larger than that from control siRNA-transfected cells (FIGS. 17A, 17B, and 17D).
Murine tumor models. H-Ras-V 12-transformed p53^−/− MEFs were used for in vivo tumor formation assays. Cells were transfected with siRNA oligonucleotides against GFP or murine MAPKAP kinase-2 for forty-eight hours, then mock treated or incubated with 0.1 μM doxorubicin or 1 μM cisplatin for eight hours, washed three times in growth media, three times in PBS, trypsinized, and resuspended at a concentration of 10^7 cells/ml in PBS. 10^6 cells were subcutaneously injected into the flanks of nude mice (Ncr nu/nu, Taconic).

Test [3] concerns U2OS cells. Description: FACS cell cycle analysis (PI, phospho-histone H3) in U2OS cells. The following applies: MAPKAP kinase-2 depleted U2OS cells; 10 μM drug, nocodazole added three hours later, thirty hours. The format is cell-based, human. Here is the method:
Asynchronous MAPKAP kinase-2 or luciferase shRNA knockdown cells were mock treated or exposed to doxorubicin for thirty hours, and cell cycle progression was monitored by FACS. In one set of experiments, the spindle poison nocodazole was added to the media three hours after addition of doxorubicin, to cause any cells progressing through the cell cycle to arrest in mitosis. DNA content was monitored by PI staining; phospho-histone-H3 staining was used as an indicator of mitotic entry. As shown in the left panels of FIG. 14A, treatment of control luciferase shRNA knockdown cells with doxorubicin led to the accumulation of cells with 4N DNA content, and a lack of phospho-histone-H3 staining in either the absence or presence of nocodazole. The cells expressing the luciferase shRNAs behaved identically to the untransfected doxorubicin-treated control U2OS cell population (FIG. 24B), with the prominent 4N DNA component and the absence of phospho-histone-H3 staining indicative of an intact G2/M checkpoint.
In contrast to the G2/M checkpoint response observed in doxorubicin-treated cells, treatment with the DNA intra-strand cross-linker cisplatin caused U2OS cells to predominantly accumulate in the G1 and S phases of the cell cycle over the subsequent thirty hours (FIG. 24C). RNA interference was used to investigate the role of MAPKAP kinase-2 in this process. […] Strikingly, when nocodazole was added three hours following cisplatin addition, the MAPKAP kinase-2 depleted cells accumulated in a 4N DNA containing peak with ˜42% of the cells staining strongly for phospho-histone H3. Identical results were obtained in cells treated with a second unrelated siRNA sequence against MAPKAP kinase-2.
FACS analysis. UV irradiation was performed at 254 nm (UV-C) using a Stratalinker 2400 (Stratagene). U2OS cells were fixed in 70% ethanol overnight at −20° C., permeabilized with PBS containing 0.2% Triton X-100 for twenty minutes at 4° C., blocked with 2% FBS in PBS, and incubated with 1 μg of anti-phospho-histone H3 per 10^6 cells for sixty minutes on ice. […]

Where [4] appears, read: MAPKAP kinase-2-depleted U2OS cells.

With `COc1cccc2c1C(=O)c1c(O)c3c(c(O)c1C2=O)C[C@@](O)(C(=O)CO)C[C@@H]3O[C@H]1C[C@H](N)[C@H](O)[C@H](C)O1` [doxorubicin], in the test with U2OS cells [1] (setting [4]), the “number of colonies relative to untreated cells” value is recorded as 2%. Further, the “number of colonies relative to untreated cells” value with U2OS cells [1] (luciferase shRNA U2OS cells) is listed as approximately 40%. Moreover, in test [2], the tumor formation entry is “completely eliminated the formation of tumors”; the “size and weight of tumors relative to tumors formed by untreated cells” value was approximately 35%. The “cells staining positively for phospho-histone H3” value with U2OS cells [3] was 36.3%.
For `N.N.[Cl][Pt][Cl]` [cisplatin], in that order: 4%, approximately 40%, “completely eliminated the formation of tumors”, approximately 35% and approximately 42%.
